Measurements: PubChem BioAssay (NCI)
Several values for one entry are separate records, joined by “and”; a condition that tells them apart may be missing. Equal values may be shown once.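 Exposure lasted 48 hours, with cells grown in 96-well plates and compounds tested at five concentrations. Here, GI50 denotes the concentration required for 50% inhibition of growth. TGI: total growth inhibition.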

Columns and labels:
Assay in all cases: NCI-60 cell line screen, 48 h
MALME-3M melanoma = tested on: MALME-3M melanoma
SF-268 CNS = tested on: SF-268 CNS
NCI-H522 lung = tested on: NCI-H522 lung
OVCAR-5 ovarian = tested on: OVCAR-5 ovarian
SNB-75 CNS = tested on: SNB-75 CNS
NCI-H460 lung = tested on: NCI-H460 lung
IGROV1 ovarian = tested on: IGROV1 ovarian
HS 578T breast = tested on: HS 578T breast
LOX IMVI melanoma = tested on: LOX IMVI melanoma
SK-MEL-5 melanoma = tested on: SK-MEL-5 melanoma

Structure (SMILES)	GI50 (MALME-3M melanoma)	TGI (MALME-3M melanoma) [µM]	GI50 (SF-268 CNS)	TGI (SF-268 CNS) [µM]	GI50 (NCI-H522 lung)	TGI (NCI-H522 lung) [µM]	GI50 (OVCAR-5 ovarian)	TGI (OVCAR-5 ovarian) [µM]	GI50 (SNB-75 CNS)	TGI (SNB-75 CNS)	GI50 (NCI-H460 lung)	TGI (NCI-H460 lung) [µM]	GI50 (IGROV1 ovarian)	TGI (IGROV1 ovarian)	GI50 (HS 578T breast)	TGI (HS 578T breast) [µM]	GI50 (LOX IMVI melanoma)	TGI (LOX IMVI melanoma) [µM]	GI50 (SK-MEL-5 melanoma)	TGI (SK-MEL-5 melanoma)
O=C(Nc1ccc(F)cc1)Nc1ccc(Br)c(C(F)(F)F)c1	2.12 µM	5.8	2.97 µM	13.2	1.56 µM	5.87	2.55 µM	10.8	1.79 µM	5.38 µM	2.53 µM	10.4	3.58 µM	15.2 µM	2.95 µM	9.31	2.51 µM	7.39	1.67 µM	3.11 µM
Cc1ccc2c(c1)C(=O)c1c-2c(OCCCN(C)C)nc2ccccc12	1.54 µM	3.29	2.3 µM	12.9	1.35 µM	3.72	1.47 µM	3.65	2.22 µM	15.5 µM	0.976 µM	3.2	1.74 µM	9.94 µM	4.24 µM	19.8	1.18 µM	2.52	4.14 µM	16.3 µM
COC(=O)Nc1nc2ccc(C(=O)c3ccccc3)cc2[nH]1	0.559 µM and 0.201 µM	> 100	1.76 µM and 0.535 µM	> 100	0.317 µM and 0.323 µM	2.36	5.38 µM and 2.5 µM	> 100	0.256 µM and 0.0866 µM	> 100 µM and 17 µM	0.397 µM and 0.33 µM		1.01 µM and 0.565 µM	> 100 µM and 52.9 µM	0.518 µM and 0.2 µM	> 100	0.625 µM and 0.87 µM	> 100	0.35 µM and 0.215 µM	14 µM and 1.47 µM
Nc1nc2cc(CC[C@H]3C[C@@H](n4ccc5c(N)ncnc54)[C@H](O)[C@@H]3O)ccc2cc1Br	7.42 µM	21.5	11.3 µM	27	9.26 µM	28.8	14.2 µM	30.1	4 µM	19.1 µM	10.9 µM	26.5	10.2 µM	23.1 µM	14.1 µM	36.8	3.95 µM	22.6	0.579 µM	2.98 µM
C=C1C(=O)O[C@H]2[C@H]1CC/C(COC(=O)OC/C1=C/CC[C@@]3(C)O[C@H]3[C@H]3OC(=O)[C@@H](CN(C)C)[C@@H]3CC1)=C\CC[C@@]1(C)O[C@@H]21	1.26 µM	3.12	3.07 µM	13.7	0.214 µM	0.513	2.13 µM	5.21	4.89 µM	25.1 µM	5.38 µM	19.9	2.3 µM	8.22 µM	4.39 µM	26.9	1.47 µM	2.97	3.97 µM	15.1 µM
C=C1SC(=Nc2ccccc2Cl)N(C(=O)c2sc3ccccc3c2Cl)C12CCCCC2	29.2 µM	> 100	11.7 µM	> 100	4.23 µM	> 100	35.9 µM	> 100	14 µM	> 100 µM	4.71 µM	> 100	9.66 µM	> 100 µM	4.84 µM	> 100	21.8 µM	> 100	8.2 µM	> 100 µM
